Laboratory results as given in patent US20100099614A1, “Antimicrobial Peptides and Methods of Use” (priority 2008, published 2010).
“And” between values parts separate entries of the source, which are not always exact repeats. Identical values can stand only once. Like-named read-outs stand apart in the source and are kept apart here.

How the values were obtained:
[1] = Peptide hydrophobicity by RP-HPLC retention; type: physicochemical; conditions: pH 2, room temperature
Protocol: Peptide Synthesis and Purification—Syntheses of the peptides were carried out by solid-phase peptide synthesis using t-butyloxycarbonyl chemistry and MBHA (4-methylbenzhydrylamine) resin (0.97 mmol/g), followed by cleavage of the peptide from the resin as described previously (117-119). However, it is understood in the art that there are other suitable instruments and methods for automated or manual peptide synthesis that could be employed to produce the peptides described herein. Peptide purification was performed by reversed-phase high-performance liquid chromatography (RP-HPLC) on a Zorbax 300 SB-C8 column (250×9.4 mm I.D.; 6.5 μm particle size, 300 Å pore size; Agilent Technologies, Little Falls, Del.) with a linear AB gradient (0.1% acetonitrile/min) at a flow rate of 2 mL/min, where eluent A was 0.2% aqueous trifluoroacetic acid (TFA), pH 2, and eluent B was 0.2% TFA in acetonitrile, where the shallow 0.1% acetonitrile/min gradient started 12% below the acetonitrile concentration required to elute the peptide on injection of analytical sample using a gradient of 1% acetonitrile/min (113). The purity of the peptides was verified by analytical RP-HPLC as described below and further characterized by mass spectrometry and amino acid analysis. Crude and purified peptides were analyzed on an Agilent 1100 series liquid chromatograph. Runs were performed on a Zorbax 300 SB-C8 column (150×2.1 mm I.D.; 5 μm particle size, 300 Å pore size) from Agilent Technologies using a linear AB gradient (1% acetonitrile/min) and a flow rate of 0.25 mL/min, where eluent A was 0.2% aqueous TFA, pH 2, and eluent B was 0.2% TFA in acetonitrile.
Analytical RP-HPLC of Peptides—Peptides were analyzed on an Agilent 1100 series liquid chromatograph (Little Falls, Del.). Runs were performed on a Zorbax 300 SB-C8 column (150×2.1 mm I.D.; 5 μm particle size, 300 Å pore size) from Agilent Technologies using linear AB gradient (1% acetonitrile/min) and a flow rate of 0.25 ml/min, where solvent A was 0.05% aqueous TFA, pH 2 and solvent B was 0.05% TFA in acetonitrile. Temperature profiling analyses were performed in 3° C. increments, from 5° C. to 80° C.

[2] = Helical structure by circular dichroism spectroscopy; type: physicochemical; conditions: 222 nm
Protocol: The mean residue molar ellipticities of peptides were determined by circular dichroism (CD) spectroscopy, using a Jasco J-810 spectropolarimeter (Easton, Md.) at 5° C. under benign (non-denaturing) conditions (50 mM NaH2PO4/Na2HPO4/100 mM KCl, pH 7.0), hereafter referred to as benign buffer, as well as in the presence of an α-helix inducing solvent, 2,2,2-trifluoroethanol, TFE, (50 mM NaH2PO4/Na2HPO4/[…], pH 7.0 buffer/50% TFE). A 10-fold dilution of an approximately […] stock solution of the peptide analogs was loaded into a 0.1 cm quartz cell and its ellipticity scanned from 195 to 250 nm. The values of molar ellipticities of the peptide analogs at a wavelength of 222 nm were used to estimate the relative α-helicity of the peptides.

Gram-negative bacteria = assay: Antibacterial activity (MIC), microtiter dilution; type: cell-based
Protocol: MICs were determined by a standard microtiter dilution method in Mueller Hinton Broth (MHB). Serial dilutions of the 10× compound were added to the microtiter plates in a volume of 10 μL followed by 90 μL of bacteria for an inoculum of 5×10^5 colony-forming units (CFU)/mL. The plates were incubated at 37° C. for 24 h, and the MICs were determined as the lowest peptide concentration that inhibited growth. […]
Alternatively; minimal inhibitory concentrations were determined using a standard microtiter dilution method in a Mueller-Hinton (MH) medium. Briefly, cells were grown overnight at 37° C. in MH broth and diluted in the same medium. Serial dilutions of the peptides were added to the microtiter plates in a volume of 100 μl followed by 10 μl of bacteria for an initial cell concentration of 1×10^5 CFU/ml. Plates were incubated at 37° C. for 24 hours and MICs determined as the lowest peptide concentration that inhibited growth.

human red blood cells = assay: Hemolytic activity (MHC50/HC50), 18 h microtiter dilution; type: cell-based; conditions: red cells of human, 18 h
Protocol: Hemoglobin release was determined spectrophotometrically at 570 nm. […] MHC50 was determined by plot the concentration-lysis format.

Ascomycota fungi = conditions: Ascomycota fungi
[3] = test system: Mycobacterium tuberculosis strain H37Rv
[4] = test system: tumor necrosis factor (TNF); assay: Cytokine assay, stimulation of peripheral blood mononuclear cells, ELISA; type: cell-based, human
Protocol: (§1) Isolation of peripheral blood mononuclear cells (PBMCs) from 5 healthy individuals was performed as described elsewhere (108). Briefly, venous blood was drawn into 10 ml tubes containing 0.2 mg of EDTA (Monoject's-Hertogenbosch, NL). The PBMC fraction was obtained by density centrifugation of blood using Ficoll-Paque (Pharmacia Biotech AB, Sweden). […] The PBMCs were incubated in 96-well tissue culture plates (Greiner, Alphen, NL) at a concentration of 5×10^5 cells per well in a total volume of 200 μl, in the presence or absence of a set of stimuli in different experiments. […] After 24 h of incubation, the supernatants were collected and stored at -80° C. until analysis. Interleukin-6 (IL-6) and tumor necrosis factor (TNF) were measured by ELISA according to the manufacturer's protocol ([…], CLB, Amsterdam, NL). […] Agilent Technologies) with a linear AB gradient (0.2% acetonitrile/min) at a flow rate of 2 ml/min, where mobile phase A was 0.1% aqueous TFA in water and B was 0.1% TFA in acetonitrile. The purity of peptides was verified by analytical RP-HPLC. The peptides were further characterized by electrospray mass spectrometry and amino acid analysis.

Interleukin-6 (IL-6) = assay: as above; type: cell-based, human
Protocol: as §1

[5] = test system: Mycobacterium tuberculosis strain H37Rv; assay: microbe, parasite or virus in culture
[6] = 50% trifluoroethanol (TFE), 5° C.; cited from earlier work
[7] = molecular target: Peptide D5, D-(V13K, A12L, A20L, A23L, V16K); assay: RP-HPLC temperature profiling at pH 2, maximal retention time difference against control peptide C; self-association
[8] = molecular target: the molecule itself; assay: RP-HPLC temperature profiling, 5 to 80 C, pH 2 (self-association)
Protocol: Thus, if the self-association ability of a peptide in aqueous media is too strong (e.g., forming stable folded dimers through interaction of their non-polar faces) this could decrease the ability of the peptide to dissociate to monomer where the dimer cannot effectively pass through the capsule and cell wall to reach the membrane. The ability of the peptides in the present study to self-associate was determined by the technique of RP-HPLC temperature profiling at pH 2 (30,29,42). The reason pH 2 is used to determine self-association of cationic AMPs is that highly positively charged peptides are frequently not eluted from reversed-phase columns at pH 7 due to non-specific binding to negatively charged silanols on the column matrix. This is not a problem at pH 2 since the silanols are protonated (i.e., neutral) and non-specific electrostatic interactions are eliminated. At pH 2, the interactions between the peptide and the reversed-phase matrix involve ideal retention behavior, i.e., only hydrophobic interactions between the preferred binding domain (nonpolar face) of the amphipathic molecule and the hydrophobic surface of the column matrix are present (39). […]

Peptide D1, D-(V13K) = assay: RP-HPLC temperature profiling at pH 2, maximal retention time difference against control peptide C; self-association
[9] = peptide concentration 0.01 μg/ml
[10] = peptide concentration 100 μg/ml

## CC[C@@H](C)[C@@H](NC(=O)[C@@H](CC(C)C)NC(=O)[C@@H](CCCCN)NC(=O)[C@@H](CC(C)C)NC(=O)[C@@H](CC(C)C)NC(=O)[C@H](NC(=O)[C@@H](Cc1c[nH]cn1)NC(=O)[C@@H](CC(C)C)NC(=O)[C@@H](CCCCN)NC(=O)[C@H](NC(=O)[C@@H](CCCCN)NC(=O)[C@@H](CCCCN)NC(=O)[C@@H](CC(C)C)NC(=O)[C@@H](CO)NC(=O)[C@@H](CCCCN)NC(=O)[C@@H](Cc1ccccc1)NC(=O)[C@H](NC(=O)[C@@H](CCCCN)NC(=O)[C@@H](CC(C)C)NC(=O)[C@@H](Cc1ccccc1)NC(=O)[C@@H](CO)NC(=O)[C@@H](CCCCN)NC(=O)[C@@H](Cc1c[nH]c2ccccc12)NC(=O)[C@@H](CCCCN)NC(C)=O)[C@H](C)O)[C@H](C)O)[C@H](C)O)C(=O)N[C@H](CO)C(=O)N[C@H](CO)C(N)=O [D5]
[1]
  Hydrophobicity tR (retention time in RP-HPLC): 80.4 min
[2]; benign buffer containing 50% trifluoroethanol
  50% TFE [θ]222 (mean residue molar ellipticity): 35,500 deg cm^2/dmol
[2]; benign conditions (100 mM KCl, 50 mM NaH2PO4/Na2HPO4, pH 7.0)
  Benign [θ]222 (mean residue molar ellipticity): 3,700 deg cm^2/dmol
Gram-positive bacteria; 24 h
  MIC GM (geometric mean of the MIC values), Gram-positive bacteria: 9.0 µg/mL
Gram-positive bacteria; gram-positive bacteria
  increase in antibacterial activity compared to D4: 2 fold
Gram-positive bacteria; relative to D4
  Fold improvement in antimicrobial activity (geometric mean data) compared to that of D4, Gram-positive bacteria: 1.8 fold
Gram-negative bacteria; gram-negative bacteria
  increase in antibacterial activity compared to D4: 2 fold
Gram-negative bacteria; relative to D4
  Fold improvement in antimicrobial activity (geometric mean data) compared to that of D4, Gram-negative bacteria: 2.2 fold
Gram-negative bacteria; six Gram-negative strains, 128 μg/mL used where no activity at 64 μg/mL
  MIC GM (geometric mean of the MIC values), Gram-negative bacteria: 10.1 µg/mL
Zygomycota fungi; Zygomycota fungi
  increase in antifungal activity relative to D4: 16 fold
Zygomycota fungi; relative to D4
  Fold improvement in antifungal activity (geometric mean data) compared to that of D4, Zygomycota fungi: 16.0 fold
Human red blood cells
  Hemolytic activity HC50: 14.9 µM
Ascomycota fungi
  antifungal activity relative to D4: maintained the same level
[3]; 100 μg/ml (31.7 μM), 7 days incubation vs day 0
  reduction in viability (CFU/ml): about 100 fold
[3]; further experiments, relative to D4
  Anti-tuberculosis activity to H37Rv strain Fold (compared to D4): 4.9 fold
[4]; [9]
  TNF Exp 1: <0.015 ng/mL
  TNF Exp 2: <0.015 ng/mL
[4]; peptide concentration 1 μg/ml
  TNF Exp 1: <0.015 ng/mL
  TNF Exp 2: <0.015 ng/mL
Interleukin-6 (IL-6); [9]
  IL-6 Exp 1: <3 pg/mL
  IL-6 Exp 2: <3 pg/mL
Interleukin-6 (IL-6); peptide concentration 1 μg/ml
  IL-6 Exp 1: <3 pg/mL
Interleukin-6 (IL-6); [10]
  IL-6 Exp 1: <3 pg/mL
  IL-6 Exp 2: <3 pg/mL

## CO[C@H]1/C=C/O[C@@]2(C)Oc3c(C)c(O)c4c(O)c(c(/C=N/N5CCN(C)CC5)c(O)c4c3C2=O)NC(=O)/C(C)=C\C=C\[C@H](C)[C@H](O)[C@@H](C)[C@@H](O)[C@@H](C)[C@H](OC(C)=O)[C@@H]1C [rifampin]
[5]; 168 h, read-out: Anti-tuberculosis activity MIC
  MIC: 0.033 µM and 0.027 µg/mL
[5]; read-out: Anti-tuberculosis activity to H37Rv strain MIC
  MIC: 0.033 µM and 0.027 µg/mL

## Ac-ELEKGGLEGEKGGKELEK-amide (Ac-ELEKGGLEGEKGGKELEK-NH2) [peptide C]
[6]
  [θ]222: −3,950

B1: Peptide D5, D-(V13K, A12L, A20L, A23L, V16K) (peptide)
peptide: KWKSFLKTFKSLKKTKLHTLLKLISS
modifications: all residues D-amino acids; N-terminal Nα-acetyl; C-terminal amide
[7]
  PA (dimerization / self-association parameter): 4.35

B2: Control peptide C (random coil peptide) (peptide)
peptide: Ac-ELEKGGLEGEKGGKELEK-NH2
[8]
  binding result: no binding

B3: Peptide D1, D-(V13K) (peptide)
peptide: KWKSFLKTFKSAKKTVLHTALKAISS
modifications: all residues D-amino acids; N-terminal Nα-acetyl; C-terminal amide
Peptide D1, D-(V13K)
  PA (dimerization / self-association parameter): 2.78
